Converted amounts (≈) assume the structure as drawn. Like-named read-outs stand apart in the source and are kept apart here.
Experiments:
M. tuberculosis CDC1551 [1] = assay: microbe, parasite or virus in culture; assay type: cell-based; conditions: for MIC: Mycobacterium tuberculosis; for Aerobic MIC of CLOF: CLOF with 10 μM 6-azasteroid
M. tuberculosis = assay: Minimum Bactericidal Concentration (MBC); assay type: cell-based; conditions: Mycobacterium tuberculosis
Mtb = assay: Isoniazid MIC shift on Mtb MIC plates (broth microdilution MIC); assay type: cell-based, M. tuberculosis; conditions: for MIC: Mycobacterium tuberculosis
[2] = tested on: M. tuberculosis constitutively expressing the luxABCDE operon; assay: microbe, parasite or virus in culture; assay type: cell-based; conditions: for MIC: Mycobacterium tuberculosis, read-out: LORA MIC of INH; for activity under low oxygen conditions: in combination with isoniazid
M. tuberculosis CDC1551 [3] = assay: In vitro kill kinetics / time-kill (FIG. 2, FIG. 3); assay type: cell-based; conditions: for rapid killing with mono-treatment: mono-treatment at 10-20 μM, 15 days, FIG. 2
in vitro [4] = assay type: in vitro ADME; conditions: human; for Papp A→B at 2 h, 5 μM: Caco-2, pH 7.4, Papp(A-B)
Method: (§1) Caco-2 cells were diluted to 6.86×10^6 cells/mL, dispensed into a 96-well HTS Transwell plate, and cultured for 14 to 18 days. 6-azasteroids at 5 μM was incubated at 37° C. for 2 hours with the Caco-2 cell monolayer in HBSS buffer (10 mM HEPES, pH 7.4) containing 5% BSA. Aliquots from donor sides (apical compartment for Ap→Bl flux, and basolateral compartment for Bl→Ap) and receiver sides (basolateral compartment for Ap→Bl flux, and apical compartment for Bl→Ap) were separated and extracted by acetonitrile or methanol containing appropriate internal standards (IS). The concentration of 6-azasteroid was determined by LC-MS/MS analysis.
(§2) Elution rate: 0.65 mL/min.
(§3) To predict absorption via oral administration, Caco-2 bidirectional permeability assay was performed (Table 8).

Caco-2 cell line = assay: in vitro; assay type: in vitro ADME; conditions: for substrate for P-gp transporter: Caco-2; for intestinal absorption suggested by Papp(A-B): Caco-2, 5 μM
Method: as §1, §2, §3

hERG = molecular target: T1, hERG (Homo sapiens, UniProt Q12809); assay: hERG assay (hERG currents in HEK 293 cells); assay type: cell-based; conditions: hERG stably expressed HEK 293 cells
T1 construct: expressed in transfected cells
Method: hERG stably expressed HEK 293 cells were seeded at 5×10^5 cells/per 6 cm cell culture dish and induced with doxycycline at 1 μg/mL for 48 hours. Compound at the final concentrations of 30, 10, 3.33, 1.11 and 0.37 μM was applied to the cells accumulatively, post-compound hERG currents were recorded, and IC50 was calculated. Dofetilide was used as a positive control.
To predict the potential cardiotoxic effects of 6-azastroids, human ether-a-go-go related gene (hERG) assay was applied to 100, 107 and 114 (Table 9). Cytotoxicity of 107 was also assessed (Table 10).

[5] = tested on: luminescent strain of H37Rv in infected J774A.1 cells; assay: microbe, parasite or virus in culture; assay type: cell-based, M. tuberculosis; conditions: for IC50 / IC90: Mycobacterium tuberculosis, H37RV, J774.A1, single compound, 72 h treatment
[6] = both, human, microsomes, 2 μM, pH 7.4; for Remaining Percentage with NADPH, 0 min: 0 h; for Remaining Percentage with NADPH, 15 min: 0.25 h; for Remaining Percentage with NADPH, 30 min: 0.5 h; for Remaining Percentage with NADPH, 45 min: 0.75 h; for Remaining Percentage with NADPH, 60 min: 1 h
[7] = 10 mg/kg IP injection once per day, seven days per week, for 40 days
in vitro [8] = conditions: both, human, microsomes, pH 7.4
[9] = human liver microsomes, value by Frye (Frye, S. V. 2006); cited from earlier work
[10] = Metabolic stability in human liver microsomes; conditions: both, pH 7.4
RIF-R2 (ATCC35838) = assay: microbe, parasite or virus in culture; assay type: cell-based; conditions: Mycobacterium tuberculosis, single drug
[11] = tested on: M. tuberculosis constitutively expressing the luxABCDE operon; conditions: isoniazid alone (Cho, S. H. et al. 2007), cited from earlier work
[12] = CDC1551, TB drug alone, read-out: Aerobic MIC
[13] = 504 h, single compound, 2-log kill in 21 days, read-out: MBC
[14] = CDC1551, BDQ with 10 μM 6-azasteroid, read-out: Aerobic MIC of BDQ
[15] = CDC1551, Pa (pretomanid) with 10 μM 6-azasteroid, read-out: Aerobic MIC of Pa

T1 sequence (Q12809 whole entry): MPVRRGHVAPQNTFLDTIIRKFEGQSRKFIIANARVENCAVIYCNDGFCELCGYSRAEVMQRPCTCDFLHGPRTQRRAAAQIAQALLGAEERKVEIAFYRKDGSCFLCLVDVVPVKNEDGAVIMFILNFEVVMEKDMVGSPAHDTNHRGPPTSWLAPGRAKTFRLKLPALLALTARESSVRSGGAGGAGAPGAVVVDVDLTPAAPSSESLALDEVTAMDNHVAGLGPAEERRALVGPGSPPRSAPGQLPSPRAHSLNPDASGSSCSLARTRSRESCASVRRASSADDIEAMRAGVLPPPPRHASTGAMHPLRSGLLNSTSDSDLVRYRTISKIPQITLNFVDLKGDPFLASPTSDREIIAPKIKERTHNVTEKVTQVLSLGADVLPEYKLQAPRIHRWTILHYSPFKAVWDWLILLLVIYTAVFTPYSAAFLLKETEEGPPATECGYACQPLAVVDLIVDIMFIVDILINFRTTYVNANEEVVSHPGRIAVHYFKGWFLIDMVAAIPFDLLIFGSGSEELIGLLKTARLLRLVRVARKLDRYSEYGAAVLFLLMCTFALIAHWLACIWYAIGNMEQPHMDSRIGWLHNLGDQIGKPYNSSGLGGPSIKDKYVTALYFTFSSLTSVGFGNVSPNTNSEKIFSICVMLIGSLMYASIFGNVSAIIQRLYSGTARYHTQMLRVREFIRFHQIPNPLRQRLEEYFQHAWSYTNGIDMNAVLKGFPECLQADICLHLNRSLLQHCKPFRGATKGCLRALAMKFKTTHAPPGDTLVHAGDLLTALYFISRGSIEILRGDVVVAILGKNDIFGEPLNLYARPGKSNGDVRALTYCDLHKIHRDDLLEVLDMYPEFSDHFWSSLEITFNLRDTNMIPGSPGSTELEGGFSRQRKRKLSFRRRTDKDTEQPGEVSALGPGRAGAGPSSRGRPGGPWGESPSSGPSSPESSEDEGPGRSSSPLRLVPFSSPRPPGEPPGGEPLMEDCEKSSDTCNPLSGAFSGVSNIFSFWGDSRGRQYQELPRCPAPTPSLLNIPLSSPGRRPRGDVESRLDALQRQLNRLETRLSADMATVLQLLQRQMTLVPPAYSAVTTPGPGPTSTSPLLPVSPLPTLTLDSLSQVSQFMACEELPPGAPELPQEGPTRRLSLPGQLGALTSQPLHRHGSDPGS

## COc1nc2ccc(Br)cc2cc1[C@@H](c1ccccc1)[C@@](O)(CCN(C)C)c1cccc2ccccc12 [BDQ, bedaquiline, reference compound]
M. tuberculosis CDC1551 [1]; [12]
  MIC: 0.1 µM (≈ 0.0556 µg/mL)
M. tuberculosis; [13]
  MBC: 0.5 µM (≈ 0.278 µg/mL)

## CC(C)/N=c1\cc2n(-c3ccc(Cl)cc3)c3ccccc3nc-2cc1Nc1ccc(Cl)cc1 [CLOF, clofazimine]
M. tuberculosis CDC1551 [1]; [12]
  MIC: 2 µM (≈ 0.947 µg/mL)

## CC(C)(C)c1ccc(C(C)(C)C)c(NC(=O)[C@H]2CCC3C4CNC5=CC(=O)CC[C@]5(C)C4CC[C@@]32C)c1 (some centres unmarked) [Compound 100]
Mtb
  Isoniazid MIC shift: +++ (>10-fold +++)
M. tuberculosis CDC1551 [1]
  Aerobic MIC of CLOF: NC^b
M. tuberculosis CDC1551 [1]; [14]
  MIC: 0.01 µM
M. tuberculosis CDC1551 [1]; [15]
  MIC: 0.0002 µM
[2]; INH with 15 μM 6-azasteroid
  MIC: 0.75 µM
[2]
  activity under low oxygen conditions: active
M. tuberculosis; INH with 12 μM 100, read-out: MBC of INH
  MBC: 0.6 µM
M. tuberculosis CDC1551 [3]
  rapid killing with mono-treatment: no rapid killing in 15 days
In vitro [4]
  Papp A→B at 2 h, 5 μM: 1.4 ×10⁻⁶ cm/s
In vitro [4]; Caco-2, pH 7.4, efflux ratio
  efflux ratio at 2 h, 5 μM: ~0.5
Caco-2 cell line
  substrate for P-gp transporter: not a substrate for P-gp transporter
Caco-2 cell line; human, pH 7.4
  intestinal absorption suggested by Papp(A-B): over 50%
hERG
  IC50: 953 nM
[5]; 100 at 20 μM
  improvement of the potency of INH: 10 fold
[5]
  IC50: 3000 nM
  IC90: > 40000 nM
[6]
  Remaining Percentage with NADPH, 0 min: 100.00%
  Remaining Percentage with NADPH, 15 min: 65.83%
  Remaining Percentage with NADPH, 30 min: 55.21%
  Remaining Percentage with NADPH, 45 min: 48.69%
  Remaining Percentage with NADPH, 60 min: 37.91%
[7]
  toxicity: no toxicity was observed
In vitro [8]
  CLint scaled at 2 μM: 37.5 mL/min/kg
  microsomal CLint at 2 μM: 29.9 µL/min/mg
[9]
  T1/2 previously reported: 164 min
[10]
  half-life at 2 μM: 46.3 min

## CC(C)(C)OC(=O)N1CC2C(CC[C@@]3(C)C2CC[C@@H]3C(=O)Nc2cc(C(F)(F)F)ccc2C(F)(F)F)[C@@]2(C)CCC(=O)C=C12 (some centres unmarked) [Compound 103]
Mtb
  Isoniazid MIC shift: +++ (>10-fold +++)

## CC1C[C@@]2(C)C(=CC1=O)N(C)CC1C2CC[C@@]2(C)C1CC[C@@H]2C(=O)Nc1cc(C(C)(C)C)ccc1C(C)(C)C (some centres unmarked) [Compound 104]
Mtb
  Isoniazid MIC shift: ++ (4-8-fold ++)

## COc1nc(OC(F)(F)F)c(NC(=O)C2CCC3C4CNC5=CC(=O)CC[C@]5(C)C4CC[C@]23C)cc1Br (some centres unmarked) [Compound 105]
Mtb
  Isoniazid MIC shift: + (2-4-fold +)
M. tuberculosis CDC1551 [1]; [15]
  MIC: 0.0002 µM

## CC(C)(C)c1cc(NC(=O)[C@H]2CCC3C4CNC5=CC(=O)CC[C@]5(C)C4CC[C@@]32C)cc(C(C)(C)C)c1 (some centres unmarked) [Compound 109]
Mtb
  Isoniazid MIC shift: ++ (4-8-fold ++)

## CN1CC2C(CC[C@@]3(C)C2CC[C@@H]3C(=O)Nc2cc(C(C)(C)C)ccc2C(C)(C)C)[C@@]2(C)CCC(=O)C=C12 (some centres unmarked) [Compound 113]
Mtb
  Isoniazid MIC shift: +++ (>10-fold +++)

## CCCN1CC2C(CC[C@@]3(C)C2CC[C@@H]3C(=O)Nc2cc(C(C)(C)C)ccc2C(C)(C)C)[C@@]2(C)CCC(=O)C=C12 (some centres unmarked) [Compound 114]
Mtb
  Isoniazid MIC shift: +++ (>10-fold +++)
M. tuberculosis CDC1551 [1]
  Aerobic MIC of CLOF: NC^b
M. tuberculosis CDC1551 [1]; [14]
  MIC: < 0.0015 µM
[2]; INH with 55 μM 6-azasteroid
  MIC: 2.75 µM
[2]
  activity under low oxygen conditions: active
M. tuberculosis; [13]
  MBC: > 40 µM
M. tuberculosis; BDQ with 10 μM 114, read-out: MBC of BDQ
  MBC: 0.025 µM
M. tuberculosis; INH with 13 μM 114, read-out: MBC of INH
  MBC: 0.7 µM
M. tuberculosis CDC1551 [3]
  effect on bactericidal activity of bedaquiline: improves bactericidal activity of bedaquiline
  rapid killing with mono-treatment: no rapid killing in 15 days
In vitro [4]; Caco-2, pH 7.4, Efflux Ratio
  efflux ratio at 2 h, 5 μM: 0.87
In vitro [4]
  Papp A→B at 2 h, 5 μM: 0.85 ×10⁻⁶ cm/s
In vitro [4]; Caco-2, pH 7.4, efflux ratio
  efflux ratio at 2 h, 5 μM: ~0.5
Caco-2 cell line
  substrate for P-gp transporter: not a substrate for P-gp transporter
Caco-2 cell line; human, pH 7.4
  intestinal absorption suggested by Papp(A-B): over 50%
Caco-2 cell line; human, Caco-2, 2 h, 5 μM, pH 7.4
  Efflux Ratio: 0.48
hERG
  IC50: 739 nM
[6]
  Remaining Percentage with NADPH, 0 min: 100.00%
  Remaining Percentage with NADPH, 15 min: 24.89%
  Remaining Percentage with NADPH, 30 min: 4.76%
  Remaining Percentage with NADPH, 45 min: 1.68%
  Remaining Percentage with NADPH, 60 min: 0.96%
In vitro [8]
  microsomal CLint at 2 μM: 73.2 µL/min/mg
[10]
  half-life at 2 μM: 18.9 min

## CCc1cc(C(N)=S)ccn1 [ETH, ethionamide]
M. tuberculosis CDC1551 [1]; CDC1551, read-out: Aerobic MIC
  MIC: 12.5 µM (≈ 2.08 µg/mL)

## NNC(=O)c1ccncc1 [INH, isoniazid]
Mtb; isoniazid without 6-azasteroid, read-out: MIC for isoniazid
  MIC: 0.4 µM
Mtb; read-out: MIC for isoniazid alone
  MIC: 0.2 to 0.4 µM
M. tuberculosis CDC1551 [1]; [12]
  MIC: 0.2 to 0.4 µM (≈ 0.0274 to 0.0549 µg/mL)
M. tuberculosis; [13]
  MBC: > 230 µM
RIF-R2 (ATCC35838)
  MIC: 0.6 µM (≈ 0.0823 µg/mL)
[5]
  IC50: ~1500 nM
  IC90: > 6000 nM
[11]
  LORA MIC: >128 µM
[11]; listed as isoniazid
  LORA MIC: > 128 µM

## CC(=O)NC[C@H]1CN(c2ccc(N3CCOCC3)c(F)c2)C(=O)O1 [LIN, linezolid]
M. tuberculosis CDC1551 [1]; CDC1551, read-out: Aerobic MIC
  MIC: 0.8 µM (≈ 0.27 µg/mL)

## C[C@H]1COc2c(N3CCN(C)CC3)c(F)cc3c(=O)c(C(=O)O)cn1c23 [Levofloxacin]
RIF-R2 (ATCC35838)
  MIC: 2.4 µM (≈ 0.867 µg/mL)

## COc1c(N2C[C@@H]3CCCN[C@@H]3C2)c(F)cc2c(=O)c(C(=O)O)cn(C3CC3)c12 [MOXI, moxifloxacin]
M. tuberculosis CDC1551 [1]; [12]
  MIC: 0.18 µM (≈ 0.0723 µg/mL)

## O=[N+]([O-])c1cn2c(n1)OC[C@@H](OCc1ccc(OC(F)(F)F)cc1)C2 [Pa, pretomanid]
M. tuberculosis CDC1551 [1]; [12]
  MIC: 0.00625 µM (≈ 0.00225 µg/mL)

## CO[C@H]1/C=C/O[C@@]2(C)Oc3c(C)c(O)c4c(O)c(c(/C=N/N5CCN(C)CC5)c(O)c4c3C2=O)NC(=O)/C(C)=C\C=C\[C@H](C)[C@H](O)[C@@H](C)[C@@H](O)[C@@H](C)[C@H](OC(C)=O)[C@@H]1C [Rifampicin]
RIF-R2 (ATCC35838)
  MIC: > 50 µM

Source: patent US11072633B2 (priority 2016, dated 2021)
